Patent US11135236B2, “Retinoic acid receptor gamma agonists to attenuate anthracycline-induced cardiotoxicity” (Northwestern University, priority 2018, dated 2021)
“Also recorded” adds a separate entry of the source. Marks after values point to notes of the source that are not given here.

How the values were obtained:
[1] = tested on: MCF7; experiment: breast cancer cell viability after 72 h of doxorubicin and RARG agonists co-treatment; type: cell-based, human; conditions: MCF7, doxorubicin LD50 with agonist co-treatment, 10 μM, footnote: 1 μM each, 72 h; Vehicle 0.490
Description: (§2) 384-well plate-based cell viability, caspase 3/7 activity, and reactive oxygen species (ROS) assays. […] Luminescence was measured using a VarioSkan Lux Multi-Mode Reader (Thermo Scientific) with an integration time of 0.25 sec. 10 μM staurosporine (MedChemExpress) was used as a positive control. […] 10 μM staurosporine and 50 μM menadione (both MedChemExpress) was used as a positive control, respectively. Data were analyzed using Prism 7.0 software (GraphPad) using standard dose-response guidelines.
Breast cancer cell lines. Four human breast cancer cell lines were used, MCF7 (adenocarcinoma, ATCC HTB-22) and Hs 578T (carcinsarcoma, ATCC HTB-126) both cultured in RPMI 1640 (Corning) with 10% FBS (Opti-Gold, GenDEPOT), MDA-MB-231 (adenocarcinoma, ATCC HTB-26) and MDA-MB-468 (adenocarcinoma, ATCC HTB-131) both cultured in DMEM (Corning) with 10% FBS. All cells were cultured on uncoated tissue culture plates (Greiner) and passaged with TrypLE Express (Gibco).

[2] = tested on: C57BL/6J Mice; experiment: mouse model of doxorubicin-induced cardiomyopathy, echocardiography; type: in vivo; conditions: doxorubicin 3 mg kg^−1 i.p. twice weekly for 3 weeks, agonist 12 mg kg^−1 oral once a day, at three weeks
Text: (§1) Mouse model of doxorubicin-induced cardiomyopathy and drug administration. […] For the control group, we treated mice with corn oil in the same schedule as agonist administration. We recorded an echocardiogram once a week (day 0, day 7, day 14, and day 21) and terminated the experiment at day 21. Hearts were harvested for western blot analyses as mentioned above.
Echocardiographic evaluation. Mice were studied at baseline and weekly during the protocol under light anesthesia with isoflurane (induction 3%, maintenance 1.5%). 2D images in the parastemal short axis were obtained with a GE Vivid 7 ultrasound system (GE Healthcare) equipped with a 13 MHz transducer. Left ventricular end-systolic (LVESD) and end-diastolic (LVEDD) dimensions were measured and left ventricular fractional shortening (FS) was calculated.

[3] = tested on: TOP2B, pERK and BCL2 in the hearts of mice; experiment: Western blot of mouse hearts at three weeks after treatment; type: in vivo; conditions: doxorubicin plus oral agonist
Description: Western blot. We washed and harvested cells in cold PBS and collected them by centrifugation at 20,000 g for 10 min. at 4° C. Pellet was lysed in PBS containing 1% SDS and protease inhibitors (cOmplete, ROCHE) and sonicated (2 pulses of 12 sec at 125 Watt) to shear DNA. We centrifuged the samples at 20,000 g for 15 min. at RT to precipitate and discard the insoluble material and the protein concentration in the supernatant was quantified using BCA assay (Thermo Scientific) following manufacturer's instructions. 20 μg protein/sample were subject to SDS-PAGE in a 9% acrylamide gel for 45 min. at 180 V. and transferred to a PVDF membrane (Immobilon-P, Millipore) at 200 mA. For 90 min. Membranes were blocked in TBST containing 5% milk for 1 h. at RT and incubated at 4° C. overnight with the following primary antibodies: 1:1000 monoclonal rabbit IgG RARG (Abcam, ab187159), 1:1000 polyclonal rabbit IgG TOP2B (Abcam, ab125297), 1:5000 polyclonal rabbit IgG β-Tubulin (Sigma, T2200), 1:5000 monoclonal mouse IgG2a β-Actin (Sigma, A5316). The membrane was washed three times for 10 min with TBST and incubated with the appropriate secondary antibody: 1:5,000 HRP-goat anti-mouse IgG or HRP-goat anti-rabbit IgG (GE NA931V and NA934V) for 1 h. at RT. After three additional washes with TBST, membranes were developed by chemiluminiscence (SuperSignal West Pico, Thermo Scientific). Signals were captured using a CCD camera-based imager (Azure Biosystems) and quantified using Image J software. Mice heart tissues were harvested and homogenized using lysis buffer (80 mM NaCl, 0.05% Triton X, 1 mM EDTA, 20 mM HEPES, 0.5% sodium deoxycholate, 1 mM DTT, 20 mM β-glycerophosphate) with TissueLyser LT (Qiagen) and centrifuged at 10,000 rpm for 15 min at 4° C. Proteins were quantified with Bradford (Bio-Rad) and separated by TrisGlycine SDS/PAGE (Bio-Rad). Transferred proteins on nitrocellulose membrane were probed against TOP2B (R&D Systems), phosphorylated ERK1/2 (Cell Signaling Technologies), BCL2 (Santa Cruz Biotechnology), and GAPDH (Advanced ImmunoChemical).
as §1

[4] = tested on: ERK1/2; experiment: MSD analysis of phosphorylated ERK in hiPSC-CMs; type: cell-based, human; conditions: Control hiPSC-CMs treated with doxorubicin 24 h, with or without pre/co-treatment
Description: MSD analysis of phosphorylated ERK. hiPSC-CMs were collected in lysis buffer (150 mM NaCl, 1% TritonX-100, 50 mM Tris-HCl, pH 8.0) supplemented with Phosphatase Inhibitor II (1:100, Sigma-Adrich), Phosphatase Inhibitor Cocktail 3 (1:100, Sigma-Adrich), 1 mM NaVO4 and protease inhibitors (cOmplete, ROCHE). We centrifuged the samples at 50,000 g for 15 min. at 4° C. to precipitate and discard the insoluble material and the protein concentration in the supernatant was quantified using BCA assay (Thermo Scientific) following manufacturer's instructions. 2.5 μg protein/sample were analyzed using the MSD Phospho(Thr202/yr204; Thr185/Tyr187)/Total ERK1/2 Assay Whole Cell Lysate Kit (Meso Scale Discovery, K15100D-1), according to manufacturer's recommendations. The ratio of phosphorylated ERK was normalized to Total ERK1/2 signal, and analyzed using Prism 7.0 software (GraphPad).

[5] = tested on: RARG-WT hiPSC-CMs; conditions: RARG-WT hiPSC-CMs, agonist 1 μM, 72 h doxorubicin
Description: as §2

[6] = tested on: control hiPSC-CMs; conditions: 1 μM CD1530 and 30 μM U0126, Control hiPSC-CMs, 72 h doxorubicin
Description: as §2

Structure (SMILES)	LD50 [1]	cardiac function (fractional shortening) compared with vehicle treatment [2]	BCL2 in the murine hearts [3]	TOP2B in the murine hearts [3]	pERK in the murine hearts [3]	pERK [4]	increase of doxorubicin LD50 [5]	effect of ERK signaling inhibition on the protective effect of CD1530 [6]
O=C(O)c1ccc(-c2ccc3cc(O)c(C45CC6CC(CC(C6)C4)C5)cc3c2)cc1 [CD1530, 4-(6-Hydroxy-7-tricyclo[3.3.1.13,7]dec-1-yl-2-naphthalenyl)benzoic acid]	0.275** μM	significantly higher	significant upregulation	modest but non-significant downregulation	significantly increased	significant increase in pERK; also recorded: significant upregulation of ERK expression	4 fold	
CC1=C(/C=C/C(C)=C/C=C/C(C)=C/C(=O)O)C(C)(C)CCC1 [ATRA, 3,7-Dimethyl-9-(2,6,6-trimethyl-1-cyclohexen-1-yl)-2E,4E,6E,8E-nonatetraenoic acid]	0.355 µM	marginally improved			significantly increased			
O=C(O)c1ccc2cc(-c3ccc(O)c(C45CC6CC(CC(C6)C4)C5)c3)ccc2c1 [CD437, 6-(4-Hydroxy-3-tricyclo[3.3.1.13,7]dec-1-ylphenyl)-2-naphthalenecarboxylic acid]	0.343 µM							
N#CC(=C(/N)Sc1ccccc1N)/C(C#N)=C(\N)Sc1ccccc1N [U0126]								completely abolished the protective effect of CD1530
